Measured values as given in patent publication US20220378923A1, “BET DEGRADER” (KYOWA KIRIN CO., LTD., priority 2019, published 2022).

System: SU-DHL-4 cells
Assay: Inhibitory effect on cell viability in SU-DHL-4 cell line (Test Example 1)
Type: cell-based, human
Conditions: SU-DHL-4 cells, 72 hours, Cell Counting Kit-8; concentration showing 90% inhibition of cell viability; read-out: SU-DHL-4 Cell Viability Inhibition Rate IC90
Procedure: SU-DHL-4 cells (Code No. ACC 495, Deutsche Sammlung von Mikroorganismen and Zellkulturen GmbH; DSMZ) were cultured at 37° C. using a carbon dioxide incubator (95% air, 5% CO2) in RPMI1640 medium (Code No. 11875-093, Thermo Fisher Scientific) in which inactivated fetal bovine serum (FBS: Code No. 10099-148, Thermo Fisher Scientific) in an amount to give a final concentration of 10 vol % and penicillin/streptomycin solution (PS: […] The cells were passaged twice a week at a volume of 20-40 mL so as to maintain a cell concentration of 1×10^6 cells/mL or less. […] After seeding, the cells were precultured at 37° C. in a carbon dioxide gas incubator for 18 to 25 hours. […] At this time, the final concentration of DMSO was adjusted to be 0.1 vol %. After adding the test compound, the cells were cultured at 37° C. in a carbon dioxide gas incubator for 72 hours. Next, 0.020 mL of Cell Counting Kit-8 (Code No. CK04, DOJINDO) solution diluted 2-fold or 4-fold with phosphate buffered saline (PBS) was added to each well. Color reaction was carried out in a carbon dioxide gas incubator at 37° C. for 2 to 3 hours, and the absorbance at a wavelength of 450 nm was measured using SpectraMax 340PC (Molecular Devices). […] Absorbance of a well containing test compound • B: Absorbance of a well without addition of cells • C: Absorbance of a well without addition of test compound

IC90 | Compound
0.38 nM | CCC(=O)N1c2ccccc2[C@H](Nc2ccc(C(=O)NCC(=O)CNC(=O)C3CCC(N[C@@H]4C[C@H](C)N(C(=O)CC)c5ccccc54)CC3)cc2)C[C@@H]1C (relative stereo) [Compound 7r, 4-(((2S,4R)-2-Methyl-1-propionyl-1,2,3,4-tetrahydroquinolin-4-yl)amino)-N-(3-((1R,4r)-4-(((2S*,4R*)-2-methyl-1-propionyl-1,2,3,4-tetrahydroquinolin-4-yl)amino)cyclohexane-1-carboxamide)-2-oxopropyl)benzamide]
0.2 nM | CCC(=O)N1c2ccccc2[C@H](Nc2ccc(-c3ccc(CNC(=O)C4CCC(N[C@@H]5C[C@H](C)N(C(=O)CC)c6ccccc65)CC4)s3)cc2)C[C@@H]1C (relative stereo) [Compound 8e, (1R,4R)-4-(((2S*,4R*)-2-Methyl-1-propionyl-1,2,3,4-tetrahydroquinolin-4-yl)amino)-N-((5-(4-(((2S,4R)-2-methyl-1-propionyl-1,2,3,4-tetrahydroquinolin-4-yl)amino)phenyl)thiophen-2-yl)methyl)cyclohexane-1-carboxamide]
1.14 nM | CCC(=O)N1c2ccccc2[C@H](Nc2ccc(-c3cnc4n3CCN(C(=O)C3CCC(N[C@@H]5C[C@H](C)N(C(=O)CC)c6ccccc65)CC3)C4)cc2)C[C@@H]1C (relative stereo) [Compound 8h, 1-((2S*,4R*)-2-methyl-4-(((1R,4R)-4-(3-(4-(((2S,4R)-2-methyl-1-propionyl-1,2,3,4-tetrahydroquinolin-4-yl)amino)phenyl)-5,6,7,8-tetrahydroimidazo[1,2-a]pyrazine-7-carbonyl)cyclohexyl)amino)-3,4-dihydroquinolin-1(2H)-yl)propan-1-one]
2.69 nM | CCC(=O)N1c2ccccc2[C@H](Nc2ccc(SCCNC(=O)C3CCC(N[C@@H]4C[C@H](C)N(C(=O)CC)c5ccccc54)CC3)cc2)C[C@@H]1C (relative stereo) [Compound 8i, (1R,4R)-4-(((2S*,4R*)-2-Methyl-1-propionyl-1,2,3,4-tetrahydroquinolin-4-yl)amino)-N-(2-((4-(((2S,4R)-2-methyl-1-propionyl-1,2,3,4-tetrahydroquinolin-4-yl)amino)phenyl)thio)ethyl)cyclohexane-1-carboxamide]
0.26 nM | CCC(=O)N1c2ccccc2[C@H](Nc2ccc(-c3nc(CNC(=O)C4CCC(N[C@@H]5C[C@H](C)N(C(=O)CC)c6ccccc65)CC4)no3)cc2)C[C@@H]1C (relative stereo) [Compound 8k, (1R,4R)-4-(((2S*,4R*)-2-Methyl-1-propionyl-1,2,3,4-tetrahydroquinolin-4-yl)amino)-N-((5-(4-(((2S,4R)-2-methyl-1-propionyl-1,2,3,4-tetrahydroquinolin-4-yl)amino)phenyl)-1,2,4-oxadiazol-3-yl)methyl)cyclohexane-1-carboxamide]
0.04 nM | CCC(=O)N1c2ccccc2[C@H](Nc2ccc(-n3cc(CNC(=O)C4CCC(N[C@@H]5C[C@H](C)N(C(=O)CC)c6ccccc65)CC4)nn3)cc2)C[C@@H]1C (relative stereo) [Compound 8l, (1R,4R)-4-(((2S*,4R*)-2-Methyl-1-propionyl-1,2,3,4-tetrahydroquinolin-4-yl)amino)-N-((1-(4-(((2S,4R)-2-methyl-1-propionyl-1,2,3,4-tetrahydroquinolin-4-yl)amino)phenyl)-1H-1,2,3-triazol-4-yl)methyl)cyclohexane-1-carboxamide]
1.17 nM | CCC(=O)N1c2ccccc2[C@H](Nc2ccc(NC(=O)NCCNC(=O)C3CCC(N[C@@H]4C[C@H](C)N(C(=O)CC)c5ccccc54)CC3)cc2)C[C@@H]1C (relative stereo) [Compound 8n, (1R,4r)-4-(((2S*,4R*)-2-Methyl-1-propionyl-1,2,3,4-tetrahydroquinolin-4-yl)amino)-N-(2-(3-(4-(((2S,4R)-2-methyl-1-propionyl-1,2,3,4-tetrahydroquinolin-4-yl)amino)phenyl)ureido)ethyl)cyclohexane-1-carboxamide]
0.49 nM | CCC(=O)N1c2ccccc2[C@H](Nc2ccc(-c3cnn(CCNC(=O)C4CCC(N[C@@H]5C[C@H](C)N(C(=O)CC)c6ccccc65)CC4)c3)cc2)C[C@@H]1C (relative stereo) [Compound 8o, (1R,4r)-4-(((2S*,4R*)-2-Methyl-1-propionyl-1,2,3,4-tetrahydroquinolin-4-yl)amino)-N-(2-(4-(4-(((2S,4R)-2-methyl-1-propionyl-1,2,3,4-tetrahydroquinolin-4-yl)amino)phenyl)-1H-pyrazol-1-yl)ethyl)cyclohexane-1-carboxamide]
1.68 nM | CCC(=O)N1c2ccccc2[C@H](Nc2ccc(C(=O)NCCS(=O)(=O)NC3CCC(N[C@@H]4C[C@H](C)N(C(=O)CC)c5ccccc54)CC3)cc2)C[C@@H]1C (relative stereo) [Compound 9a, 4-(((2S,4R)-2-Methyl-1-propionyl-1,2,3,4-tetrahydroquinolin-4-yl)amino)-N-(2-(N-((1R,4R)-4-(((2S*,4R*)-2-methyl-1-propionyl-1,2,3,4-tetrahydroquinolin-4-yl)amino)cyclohexyl)sulfamoyl)ethyl)benzamide]
3.18 nM | CCC(=O)N1c2ccccc2[C@H](Nc2ccc(-c3cnn(CC(=O)NC4CCC(N[C@@H]5C[C@H](C)N(C(=O)CC)c6ccccc65)CC4)c3)cc2)C[C@@H]1C (relative stereo) [Compound 9b, N-((1R,4R)-4-(((2S*,4R*)-2-Methyl-1-propionyl-1,2,3,4-tetrahydroquinolin-4-yl)amino)cyclohexyl)-2-(4-(4-(((2S,4R)-2-methyl-1-propionyl-1,2,3,4-tetrahydroquinolin-4-yl)amino)phenyl)-1H-pyrazol-1-yl)acetamide]
12.4 nM | CCC(=O)N1c2ccccc2[C@H](Nc2ccc(NC(=O)NCC(=O)NC3CCC(N[C@@H]4C[C@H](C)N(C(=O)CC)c5ccccc54)CC3)cc2)C[C@@H]1C (relative stereo) [Compound 9c, N-((1R,4R)-4-(((2S*,4R*)-2-Methyl-1-propionyl-1,2,3,4-tetrahydroquinolin-4-yl)amino)cyclohexyl)-2-(3-(4-(((2S,4R)-2-methyl-1-propionyl-1,2,3,4-tetrahydroquinolin-4-yl)amino)phenyl)ureido)acetamide]
0.92 nM | CCC(=O)N1c2ccccc2[C@H](Nc2ccc(C(=O)NCC#CC(=O)NC3CC(N[C@@H]4C[C@H](C)N(C(=O)CC)c5ccccc54)C3)cc2)C[C@@H]1C (relative stereo) [Compound 10f, 4-(((2S,4R)-2-Methyl-1-propionyl-1,2,3,4-tetrahydroquinolin-4-yl)amino)-N-(4-(((1R,3R)-3-(((2S*,4R*)-2-methyl-1-propionyl-1,2,3,4-tetrahydroquinolin-4-yl)amino)cyclobutyl)amino)-4-oxobut-2-yn-1-yl)benzamide]
0.35 nM | CCC(=O)N1c2ccccc2[C@H](NCc2ccc(C(=O)NCc3cn(-c4ccc(N[C@@H]5C[C@H](C)N(C(=O)CC)c6ccccc65)cc4)nn3)cc2)C[C@@H]1C (relative stereo) [Compound 10h, 4-((a2S*,4R*)-2-Methyl-1-propionyl-1,2,3,4-tetrahydroquinolin-4-yl)amino)methyl)-N-((1-(4-(((2S,4R)-2-methyl-1-propionyl-1,2,3,4-tetrahydroquinolin-4-yl)amino)phenyl)-1H-1,2,3-triazol-4-yl)methyl)benzamide]

Compound | IC90
CCC(=O)N1c2ccccc2[C@H](Nc2ccc(-c3cnn(C4CCN(C(=O)C5CCC(N[C@@H]6C[C@H](C)N(C(=O)CC)c7ccccc76)CC5)CC4)c3)cc2)C[C@@H]1C (relative stereo) [Compound 8d, 1-((2S*,4R*)-2-Methyl-4-(((1r,4R)-4-(4-(4-(4-(((2S,4R)-2-methyl-1-propionyl-1,2,3,4-tetrahydroquinolin-4-yl)amino)phenyl)-1H-pyrazol-1-yl)piperidine-1-carbonyl)cyclohexyl)amino)-3,4-dihydroquinolin-1(2H)-yl)propan-1-one] | 0.14 nM
CCC(=O)N1c2ccccc2[C@H](Nc2ccc(NC(=O)C3CCN(C(=O)C4CCC(N[C@@H]5C[C@H](C)N(C(=O)CC)c6ccccc65)CC4)CC3)cc2)C[C@@H]1C (relative stereo) [Compound 8q, 1-((1R,4r)-4-(((2S*,4R*)-2-Methyl-1-propionyl-1,2,3,4-tetrahydroquinolin-4-yl)amino)cyclohexane-1-carbonyl)-N-(4-(((2S,4R)-2-methyl-1-propionyl-1,2,3,4-tetrahydroquinolin-4-yl)amino)phenyl)piperidine-4-carboxamide] | 19 nM
CCC(=O)N1c2ccccc2[C@H](NCCCCC(=O)NCc2nnc(-c3ccc(N[C@@H]4C[C@H](C)N(C(=O)CC)c5ccccc54)cc3)o2)C[C@@H]1C (relative stereo) [Compound 12j, 5-(((2S*,4R*)-2-Methyl-1-propionyl-1,2,3,4-tetrahydroquinolin-4-yl)amino)-N-((5-(4-(((2S,4R)-2-methyl-1-propionyl-1,2,3,4-tetrahydroquinolin-4-yl)amino)phenyl)-1,3,4-oxadiazol-2-yl)methyl)pentane amide] | 17.4 nM
